The source of these data is US6593365B1, “Diflunisal esters and related compounds” (The University of Queensland, priority 1997, dated 2003).

“And” between values parts separate entries of the source, which are not always exact repeats. Equal values may be shown once. Read-outs that look alike come from different tables or passages of the source.

The subject of data set [1] is in-situ perfused rat liver. Nature of the data set: In-situ rat liver perfusion bolus studies, moments and dispersion model analysis (Example 3). It is filed as in vitro ADME, Sprague-Dawley rats. To be noted: for CV^2 of reference solute / F (hepatic availability) of reference solute / MTT of reference solute: statistical moments analysis, n=12; for MTTE (mean transit time of blood): MTTE=MTTW/(+1), =0.59. The protocol: Mature female Sprague-Dawley rats were obtained from the University of Queensland Animal Breeding Facility and weighed between 180-270 grams. The animals were given access to a standard laboratory diet prior to experiment. Rats were anaesthetised by interperitoneal injection of pentobarbital sodium (60 mg/kg, Boehringer Ingelhein). […] The bile duct was cannulated with PE10 (Clay Adams, New Jersey). 0.025 gm/L taurocholic acid (Sigma Co., USA.) was dissolved in perfusate to stimulate bile production. The portal vein was then cannulated using a 16 G intravenous catheter and the liver was perfused via this cannula with 2% BSA Krebs-Henseleit bicarbonate buffer (pH 7.4) and oxygenated using a silastic tubing lung ventilated with carbogen (95% O2/5% CO2). The perfusion system used was non-recirculating and employed a peristaltic pump (Cole-Parmer, Illinois).
The animal was placed in a temperature controlled perfusion cabinet at 37° C. Liver viability was assessed by oxygen consumption, bile flow, diflunisal esters' extraction and macroscopic appearance.
Perfusions were made at 30 mL/min in each liver. After a 10 minute perfusion stabilization period, injectate (50 μL) containing Evans Blue (3 mg/mL) and [^3H]-water in a saturated solution of the particular O-acyl diflunisal ester or pregenerated diflunisal (which was injected as parent compound) in 2% BSA Krebs-Henseleit buffer, was injected into the liver with outlet samples collected via a fraction collector over one minute.
Aliquots (100 μL) of pooled perfusate samples were taken for Evans Blue spectrophotometric analysis and [^3H]-water scintillation counting before adjusting pH. These pooled samples were then acidified to pH 2.0 by addition of 1 M HCl and extracted into 2.5 volumes of ether. […] The ether fraction was then removed and reduced to approximately 100 μL by evaporation under air and prepared as before for HPLC analysis. A known concentration of each buffer solution of ester was concurrently extracted and assayed with the perfusate samples to assess the degree of spontaneous hydrolysis occurring over the duration of the extraction procedure. This non-enzymatic hydrolysis was converted for in the analysis. The total recovery of diflunisal esters extracted using this technique was >90%.
The F, MTT and CV^2 for the diflunisal esters (or pregenerated DF) and the reference solutes (EB and [^3H]-water) were determined from the outflow concentration versus time profile using equation (1)-(4), with the assistance of the Moments Calculator 2.2 program for Macintosh computer developed by Robert Purves (Purves RD, 1994, J. Pharm. Sci. 83 202-205). [formula] [formula]
where Q is the perfusate flow rate, D is the dose of diflunisal esters administered. The area under the concentration-time curve (AUC) and the first moment curve (AUMC) were estimated by the trapezoidal rule integration with appropriate modification for tail (Mellick et al., 1996, submitted for publication). [formula]
The moment data was further examined using the dispersion model of hepatic elimination which defines F of an extracted solute by the equation (Roberts et al., 1990, J. Pharmacokin. Biopharm. 18 209-234): [formula]
a={square root over (1+4RNDN)} (6)
DN is the dispersion number which describes the spread of solute residence times in the liver following bolus input and equal half the normalized variance for a non-extracted reference indicator [formula]
RN is the efficiency number which characterises the elimination of solute by the liver and is defined by the equation: [formula]
(Gillette, 1971, Ann. N. Acad. Sci. 179 43-61)), and Q is the perfusate flow rate. If F for a solute and the CV^2 for a non-extracted reference solute (eg. EB) are known, we can solve for “a” using equation (5) and then for “RN” using equation (6).
The dispersion model expressions (Roberts et al., 1990) for MTT and CV^2 are presented in equations (8) and (9). [formula] [formula] […]

A short description of data set [2]: In vitro non-enzymatic hydrolysis in Krebs-Henseleit buffer. It is filed as physicochemical. To be noted: for Hydrolysis rate constant (k): pH 7.4, 25° C., n=5; for half-life: pH 7.4, read-out: Half life (t1/2) (converted). On the procedure: These experiments were carried out both in Krebs-Henseleit buffer containing either no protein or 2% w/v BSA (bovine serum albumin, fraction V, Sigma) at pH 7.4 and 25±1° C.
Solutions of the derivatives in Krebs buffer (10 mL) was prepared in siliconised glass tubes. Each solution was sonicated for 5 minutes and centrifuged for 5 minutes (3000 g) at 25° C. to ensure maximum dissolution and to sediment any undissolved precipitate. About 7.5 mL of the supernatant was then transferred to a clean siliconised test tube and a 100 μL aliquot was removed and assayed. […] The rate of non-enzymatic hydrolysis (k) for each derivative was then estimated using the following equation: […]
where C1 is the concentration of the ester at any time (t), and C0 is the concentration of the ester at time zero. The half-life (t½) was determined using the formula: […]

[3] abbreviates: fitting to one-compartment dispersion model, individual curves 1-12 and Mean S.E. (n = 12).
[4] abbreviates: fitting to one-compartment dispersion model, individual curves 1-12 and Mean S.E. (n = 12), listed as 3H -water.

Regarding `Cc1cc(-c2ccc(/N=N/c3ccc4c(S(=O)(=O)O)cc(S(=O)(=O)O)c(N)c4c3O)c(C)c2)ccc1/N=N/c1ccc2c(S(=O)(=O)O)cc(S(=O)(=O)O)c(N)c2c1O` [EB], in data set [1], the “CV^2 of reference solute” value is listed as 1.15±0.11, the “F (hepatic availability) of reference solute” value is given as 0.95±0.04 and the “MTT of reference solute” value was found to be 9.04 ± 0.65 s.
Turning to `[3H]O[3H]` [[^3H]-water], the “MTTE (mean transit time of blood)” value in data set [1] (individual curves 1-12 and Mean S.E. (n = 12)) was 7.36 ± 0.87 s. Further, the “MTTE (mean transit time of blood)” value in data set [1] (individual curves 1-12 and Mean S.E. (n = 12), listed as 3H -water) is 10.09 s and 9.52 s and 11.67 s and 13.40 s and 5.11 s and 4.99 s and 4.23 s and 4.95 s and 6.39 s and 6.33 s and 5.52 s and 6.08 s. Further, in data set [1] (setting [3]), the “DN (dispersion number)” value was 0.29±0.03 and the “MTTW (mean transit time of the whole liver)” value stood at 11.70 ± 1.39 s. In data set [1] (setting [4]), the “DN (dispersion number)” value is 0.33 and 0.23 (3×) and 0.27 and 0.36 and 0.22 and 0.58 and 0.24 (2×) and 0.26; the “MTTW (mean transit time of the whole liver)” value is 16.05 s and 15.15 s and 18.56 s and 21.31 s and 8.12 s and 7.94 s and 6.73 s and 7.87 s and 10.16 s and 10.07 s and 8.78 s and 9.66 s. Besides, the “DN (dispersion number)” value in data set [1] (from CV^2 of the moments analysis) was 0.36±0.04. Also, in data set [1], the “CV^2 of reference solute” value was found to be 0.71±0.08, the “F (hepatic availability) of reference solute” value was 0.87±0.02 and the “MTT of reference solute” value is 14.42 ± 0.79 s.
`CCCCCCC(=O)Oc1ccccc1C(=O)O` [Compound C7SA, n-heptanoylsalicylic acid]: the “Hydrolysis rate constant (k)” value in data set [2] (Krebs-Henseleit buffer 0% BSA, U = Undetectable) came out at 0.0052 ± 0.0032 hour^1; in data set [2] (Krebs-Henseleit buffer 2% BSA), 0.0013 ± 0.0005 hour^1. Further, the half-life in data set [2] (bovine, Krebs-Henseleit buffer with 2% w/v BSA) was 22.2 days; in data set [2] (protein-free Krebs-Henseleit buffer, Krebs-Henseleit buffer 0% BSA, first half life, t1/2=0.693/k, U = Undetectable), 5.55 days.
